Assay results published in article PMC6010128, “Structure–activity relationship investigation of tertiary amine derivatives of cinnamic acid as acetylcholinesterase and butyrylcholinesterase inhibitors: compared with that of phenylpropionic acid, sorbic acid and hexanoic acid” (Journal of Enzyme Inhibition and Medicinal Chemistry, 2018).
Like-named read-outs stand apart in the source and are kept apart here.

Columns and labels:
AChE = AChE (Rattus norvegicus, UniProt P37136); experiment: biochemical
Sequence of AChE (P37136 32-614): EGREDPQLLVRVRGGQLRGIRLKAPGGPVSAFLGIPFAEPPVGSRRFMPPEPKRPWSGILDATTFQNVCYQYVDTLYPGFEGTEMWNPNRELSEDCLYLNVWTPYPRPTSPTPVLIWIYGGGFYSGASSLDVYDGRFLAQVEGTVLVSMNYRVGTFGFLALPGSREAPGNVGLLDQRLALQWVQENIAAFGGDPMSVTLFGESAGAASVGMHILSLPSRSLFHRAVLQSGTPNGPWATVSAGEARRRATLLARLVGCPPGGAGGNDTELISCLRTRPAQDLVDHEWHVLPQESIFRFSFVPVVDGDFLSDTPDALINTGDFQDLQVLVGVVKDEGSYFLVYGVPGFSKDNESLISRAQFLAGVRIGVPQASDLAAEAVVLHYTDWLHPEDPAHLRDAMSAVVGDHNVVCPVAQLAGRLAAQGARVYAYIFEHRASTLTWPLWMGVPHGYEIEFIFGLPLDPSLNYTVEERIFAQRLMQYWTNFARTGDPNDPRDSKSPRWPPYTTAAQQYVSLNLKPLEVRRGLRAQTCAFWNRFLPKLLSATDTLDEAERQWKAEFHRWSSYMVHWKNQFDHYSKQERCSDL

[1] = Log P by shake flask method; assay type: physicochemical; details: octanol / PBS pH = 7.4, shake flask
Protocol: Log P is defined as the logarithm of octanol–water partition coefficient. […] Ultraviolet spectrophotometry was applied to determine the concentration of compounds. Log p values were calculated based on the data in triplicate.

[2] = pKa by pH-titration method; assay type: physicochemical
Protocol: pKa is determined by pH-titration method according to the report. The titration curve E vs. VT was recorded and pKa value was calculated.

BChE = BChE (Rattus norvegicus, UniProt Q9JKC1); experiment: biochemical; parameters: species or system Sprague–Dawley rat
Sequence of BChE (Q9JKC1 24-597): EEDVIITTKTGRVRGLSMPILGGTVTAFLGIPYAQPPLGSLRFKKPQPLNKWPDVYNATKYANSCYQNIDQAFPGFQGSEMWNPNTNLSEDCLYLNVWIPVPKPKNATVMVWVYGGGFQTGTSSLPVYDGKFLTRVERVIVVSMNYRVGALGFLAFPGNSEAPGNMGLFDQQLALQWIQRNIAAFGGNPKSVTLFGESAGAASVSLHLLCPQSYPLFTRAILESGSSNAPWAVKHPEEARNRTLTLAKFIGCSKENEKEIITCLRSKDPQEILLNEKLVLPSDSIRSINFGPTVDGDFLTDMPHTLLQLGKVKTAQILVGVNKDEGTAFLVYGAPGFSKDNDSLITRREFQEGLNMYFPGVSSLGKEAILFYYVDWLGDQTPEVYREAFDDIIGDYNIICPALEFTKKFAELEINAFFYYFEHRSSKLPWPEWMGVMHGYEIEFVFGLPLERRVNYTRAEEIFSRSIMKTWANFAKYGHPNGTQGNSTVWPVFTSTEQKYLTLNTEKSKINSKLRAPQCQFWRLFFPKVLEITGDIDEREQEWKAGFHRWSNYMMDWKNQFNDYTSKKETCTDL

[3] = rat brain AChE, Mean ± SD, triplicate
[4] = rat serum BChE, Mean ± SD, triplicate

Row | SMILES | Selectivity for AChE (AChE; IC50 (BChE)/IC50 (AChE)) | IC50 (AChE; [3]) [µM] | logP [1] | pKa ([2]; read-out: pKa) | IC50 (BChE; [4]) [µM] | IC50 (AChE) [µM] | Selectivity for AChE (AChE) | Log P [1] | pKa [2] | IC50 (BChE) [µM]
1 | C/C=C/C=C/C(=O)Nc1cccc(OCCN2CCCCC2)c1 [Compound 17f] | 0.76 | 44.2 ± 1.36 | 2.23 | 7.17 | 33.6 ± 1.59 |  |  |  |  | 
2 | C/C=C/C=C/C(=O)Nc1ccc(OCCN2CCCC2)cc1 [Compound 18g] | 8.63 | 13.6 ± 1.24 | 1.18 | 7.73 | 118 ± 6.79 |  |  |  |  | 
3 | O=C(CCc1ccccc1)Nc1ccccc1OCCN1CCCC1 [Compound 10g] | 0.01 | 209 ± 2.33 | 1.3 | 6.88 | 1.87 ± 0.16 |  |  |  |  | 
4 | CCCCCC(=O)Nc1ccc(OCCN2CCCCC2)cc1 [Compound 24f] | 0.54 | 31.7 ± 2.74 | 1.54 | 7.16 | 17 ± 2.03 |  |  |  |  | 
5 | CCN(CC)CCOc1ccc(NC(=O)C=Cc2ccccc2)cc1 [Compound 6e] | 4.16 | 10.6 ± 0.43 | 1.22 | 6.97 | 44 ± 3.29 |  |  |  |  | 
6 | CCN(CC)CCOc1ccccc1NC(=O)CCc1ccccc1 [Compound 10e] |  | > 500 | 3.22 | 7.23 | 40.1 ± 1.29 |  |  |  |  | 
7 | CN(C)CCOc1ccc(NC(=O)CCc2ccccc2)cc1 [Compound 12d] | 2.82 | 46.8 ± 1.29 | 2.44 | 7.26 | 132 ± 5.21 |  |  |  |  | 
8 | C/C=C/C=C/C(=O)Nc1ccccc1OCCN(C)C [Compound 16d] | 1.11 | 30.7 ± 2.34 | 0.63 | 7.25 | 34.1 ± 1.85 |  |  |  |  | 
9 | CN(C)CCOc1cccc(NC(=O)CCc2ccccc2)c1 [Compound 11d] | 0.26 | 59.2 ± 3.34 | 1.19 | 6.45 | 15.5 ± 1.21 |  |  |  |  | 
10 | C/C=C/C=C/C(=O)Nc1cccc(OCCN2CCCC2)c1 [Compound 17g] | 1.51 | 18.8 ± 0.63 | 1.41 | 7.06 | 28.5 ± 1.24 |  |  |  |  | 
11 | C/C=C/C=C/C(=O)Nc1ccccc1OCCN(CC)CC [Compound 16e] |  | > 500 | 2.18 | 7.53 | 91.8 ± 1.45 |  |  |  |  | 
12 | CCN(C)C(=O)Oc1cccc([C@H](C)N(C)C)c1 [Rivastigmine, reference compound] |  |  | 1.68 | 5.93 |  |  |  |  |  | 
13 | O=C(C=Cc1ccccc1)Nc1ccccc1OCCN1CCCCC1 [Compound 4f] | 0.01 | 141 ± 7.01 | 2.17 | 6.85 | 1.16 ± 0.22 |  |  |  |  | 
14 | O=C(CCc1ccccc1)Nc1ccccc1OCCN1CCCCC1 [Compound 10f] | 0.002 | 250 ± 8.21 | 1.18 | 7.02 | 0.59 ± 0.09 |  |  |  |  | 
15 | C/C=C/C=C/C(=O)Nc1ccccc1OCCN1CCCCC1 [Compound 16f] | 0.16 | 170 ± 4.11 | 0.67 | 6.86 | 27.7 ± 1.29 |  |  |  |  | 
16 | C/C=C/C=C/C(=O)Nc1ccccc1OCCN1CCCC1 [Compound 16g] | 0.08 | 278 ± 4.58 | 0.97 | 7.32 | 21.9 ± 0.99 |  |  |  |  | 
17 | O=C(C=Cc1ccccc1)Nc1cccc(OCCN2CCCC2)c1 [Compound 5g] | 1.51 | 8.52 ± 1.23 | 2.28 | 7.28 | 12.9 ± 1.18 |  |  |  |  | 
18 | CCN(CC)CCOc1ccc(NC(=O)CCc2ccccc2)cc1 [Compound 12e] | 2.50 | 84.6 ± 6.1 | 2.58 | 6.52 | 212 ± 4.87 |  |  |  |  | 

Row | SMILES | Selectivity for AChE (AChE; IC50 (BChE)/IC50 (AChE)) | IC50 (AChE; [3]) [µM] | logP [1] | pKa ([2]; read-out: pKa) | IC50 (BChE; [4]) [µM] | IC50 (AChE) [µM] | Selectivity for AChE (AChE) | Log P [1] | pKa [2] | IC50 (BChE) [µM]
19 | C/C=C/C=C/C(=O)Nc1ccc(OCCN(CC)CC)cc1 [Compound 18e] | 0.50 | 189 ± 4.55 | 1.31 | 7.16 | 94.5 ± 4.26 |  |  |  |  | 
20 | CCCCCC(=O)Nc1cccc(OCCN(C)C)c1 [Compound 23d] | 0.13 | 60.6 ± 2.18 | 0.37 | 6.52 | 7.89 ± 0.89 |  |  |  |  | 
21 | C/C=C/C=C/C(=O)Nc1ccc(OCCN(C)C)cc1 [Compound 18d] | 17.5 | 12.6 ± 0.89 | 1.79 | 7.21 | 222 ± 8.63 |  |  |  |  | 
22 | C/C=C/C=C/C(=O)Nc1ccc(OCCN2CCCCC2)cc1 [Compound 18f] | 22.1 | 12.3 ± 0.76 | 1.61 | 7.06 | 271 ± 4.56 |  |  |  |  | 
23 | CCN(CC)CCOc1ccccc1NC(=O)C=Cc1ccccc1 [Compound 4e] | 0.04 | 197 ± 6.81 | 2.81 | 7.28 | 6.99 ± 0.29 |  |  |  |  | 
24 | CCCCCC(=O)Nc1ccccc1OCCN(CC)CC [Compound 22e] | <0.07 | > 500 | 1.67 | 7.08 | 37.2 ± 2.24 |  |  |  |  | 
25 | O=C(C=Cc1ccccc1)Nc1ccc(OCCN2CCCCC2)cc1 [Compound 6f] |  | 4.35 ± 0.36 | 1.4 | 7.29 | 94.5 ± 8.74 |  |  |  |  | 
26 | CCCCCC(=O)Nc1ccccc1OCCN1CCCC1 [Compound 22g] | <0.04 | > 500 | 1.11 | 7.16 | 18.6 ± 0.32 |  |  |  |  | 
27 | O=C(CCc1ccccc1)Nc1cccc(OCCN2CCCCC2)c1 [Compound 11f] | 0.93 | 69 ± 2.64 | 3.22 | 6.78 | 64 ± 1.92 |  |  |  |  | 
28 | CCCCCC(=O)Nc1ccccc1OCCN(C)C [Compound 22d] |  |  |  |  |  | 186 ± 8.22 | 0.14 | 1.23 | 7.32 | 26.6 ± 1.36
29 | CN(C)CCOc1ccccc1NC(=O)C=Cc1ccccc1 [Compound 4d] | 0.07 | 161 ± 2.19 | 2.78 | 6.96 | 11.2 ± 0.34 |  |  |  |  | 
30 | CCN(CC)CCOc1cccc(NC(=O)CCc2ccccc2)c1 [Compound 11e] | 0.08 | 102 ± 3.36 | 2.23 | 6.51 | 8.23 ± 0.59 |  |  |  |  | 
31 | CCCCCC(=O)Nc1cccc(OCCN2CCCCC2)c1 [Compound 23f] | 0.002 | 76.7 ± 3.17 | 1.55 | 7.32 | 0.22 ± 0.02 |  |  |  |  | 
32 | O=C(C=Cc1ccccc1)Nc1cccc(OCCN2CCCCC2)c1 [Compound 5f] | 0.16 | 20.5 ± 1.01 | 1.24 | 6.99 | 3.26 ± 0.26 |  |  |  |  | 
33 | CCCCCC(=O)Nc1ccccc1OCCN1CCCCC1 [Compound 22f] | 0.03 | 325 ± 7.65 | 1.11 | 6.99 | 9.04 ± 0.27 |  |  |  |  | 
34 | O=C(C=Cc1ccccc1)Nc1ccccc1OCCN1CCCC1 [Compound 4g] | 0.01 | 170 ± 8.49 | 2.19 | 7.33 | 1.56 ± 0.42 |  |  |  |  | 
35 | CCN(CC)CCOc1cccc(NC(=O)C=Cc2ccccc2)c1 [Compound 5e] | 0.86 | 49.4 ± 1.91 | 2.56 | 7.16 | 42.5 ± 0.67 |  |  |  |  | 
36 | CN(C)CCOc1cccc(NC(=O)C=Cc2ccccc2)c1 [Compound 5d] | 1.30 | 20.5 ± 3.13 | 0.96 | 6.51 | 26.5 ± 0.56 |  |  |  |  | 
